Where two headings read alike, the source gives them in different places.
Experiments:
[1] = system: Mouse; settings: per os
[2] = in vivo; settings: rat, in vivo, po
Text: (§1) Five days subacute toxicity in rats per os
(§2) Animals: 5 female rats for each group, average body weight: 150g.

[3] = system: rats; experiment: in vivo; settings: 5 days, rats, per os
Text: as §1, §2

[4] = system: pyresis; experiment: Antipyretic activity according to Burn et al.; format: in vivo, rat; settings: for Reduction of the pyresis at hour 4: female rats
Text: Animals: 6 female rats for each group, average body weight 200 g.

[5] = system: carrageenin paw edema; experiment: Antiinflammatory activity according to Winter et al., carrageenin paw edema, modified; format: in vivo, rat
Description: Antiinflammatory activity according to WINTER et al., Proc. Soc. Exp. Biol. Med.; 111, 544; 1962.
The test was modified in that the injection of carrageenin and the administration of the compound by gastric gavage were carried out simultaneously and the paw edema was measured at the plethysmograph after 4 hours.
Animals: 6 female rats for each group, average body weight: 150g

[6] = system: Rat; experiment: in vivo; format: in vivo; settings: per os
[7] = in vivo; format: in vivo; settings: rat, in vivo, po; read-out: LD 50 (Litchfield and Wilcoxon)
[8] = system: rats; format: in vivo, rat
Description: The test was modified by increasing the fast period to 70 hours and giving the total dose of substance in one single oral administration.
Animals: 10 male rats for each group, average body weight: 150g.

[9] = system: phenylquinone writhes; experiment: Analgesic activity according to Hendershot et al., phenylquinone writhes, modified; format: in vivo, mouse
Description: Analgesic activity according to HENDERSHOT et al., Jour. Pharm.
The test was modified by numbering the writhes only along the time interval from 5 to 15 minutes since the injection of phenylquinone. The injection was made 2 hours after the oral administration of the compound to be tested.
Animals: 8 female mice for each group, average body weight: 25g

[10] = in vivo; settings: mouse, po
[11] = system: Rat; settings: per os, literature value (footnotes a, b); cited from earlier work
[12] = 50 mg/g (so in the source) per os
[13] = 100 mg/g (so in the source) per os
[14] = male rats, single oral administration

CCN1CCCC1CNC(=O)c1nn(-c2ccccc2)c2c1N(C)S(=O)(=O)c1ccccc1-2 (stereo not shown) [Compound I-24]
LD 50, relative ratio to piroxicam [1]: 2.1 | mortality at 120 h ([2]; 200 mg/kg/day, read-out: % of dead animals): 0% | Subacute toxicity, relative ratio to naproxen [3]: 4 | Subacute toxicity, relative ratio to piroxicam [3]: 10 | Antipyretic relative potency to naproxen [4, 12]: 0.7 | Antipyretic relative potency to piroxicam [4, 12]: 0.9 | Reduction of the pyresis at hour 4 [4, 12]: 0.81 °C | Antipyretic relative potency to naproxen [4, 13]: 1.1 | Antipyretic relative potency to piroxicam [4, 13]: 1.4 | Reduction of the pyresis at hour 4 [4, 13]: 1.24 °C | Antiinflammatory relative potency to naproxen ([5]; 50 mg/kg per os): 1.8 | Antiinflammatory relative potency to piroxicam ([5]; 50 mg/kg per os): 0.8 | Antiinflammatory relative potency to naproxen ([5]; 100 mg/kg per os): 2.1 | Antiinflammatory relative potency to piroxicam ([5]; 100 mg/kg per os): 1.0 | inhibition in vivo at 50 mg/kg ([5]; Rattus norvegicus, po, 4 h, 50 mg/kg per os, female rats, read-out: % inhibition of the edema after 4 hours): 38% | inhibition in vivo at 100 mg/kg ([5]; Rattus norvegicus, po, 4 h, 100 mg/kg per os, female rats, read-out: % inhibition of the edema after 4 hours): 45% | LD 50, relative ratio to piroxicam [6]: 3.9 | LD50 [7]: 1060 mg/kg | Average number of lesions per animal ([8]; 100 mg/kg (maximum tested dose), single oral administration, male rats): 0 | Gastrolesive effect, relative potency to naproxen [8, 14]: > 20 | Gastrolesive effect, relative potency to piroxicam [8, 14]: 100 | Analgesic relative potency to naproxen ([9]; 50 mg/kg oral): 0.9 | Analgesic relative potency to piroxicam ([9]; 50 mg/kg oral): 0.7 | Analgesic relative potency to naproxen ([9]; 100 mg/kg oral): 1.4 | Analgesic relative potency to piroxicam ([9]; 100 mg/kg oral): 1.0 | inhibition in vivo at 50 mg/kg ([9]; Mus musculus, 50 mg/kg oral, 2 h before phenylquinone, 5-15 min, female mice): 30% | inhibition in vivo at 100 mg/kg ([9]; Mus musculus, 100 mg/kg oral, 2 h before phenylquinone, 5-15 min, female mice): 47% | LD50 [10]: 760 mg/kg

CN1C(C(=O)Nc2ccccn2)=C(O)c2ccccc2S1(=O)=O [Piroxicam, piroxicam, reference compound]
LD 50, relative ratio to piroxicam [1]: 1 | mortality at 120 h ([2]; 20 mg/kg/day): 0% | mortality ([2]; 30 mg/kg/day): 6% | mortality at 120 h ([2]; 30 mg/kg/day): 40% | Subacute toxicity, relative ratio to piroxicam [3]: 1 | Reduction of the pyresis at hour 4 ([4]; 10 mg/g (so in the source) per os): 0.89 °C | inhibition in vivo at 10 mg/kg ([5]; Rattus norvegicus, po, 4 h, 10 mg/kg per os, female rats, read-out: % inhibition of the edema after 4 hours): 45% | LD 50, relative ratio to piroxicam [6]: 1 | Gastrolesive effect, relative potency to piroxicam [8, 14]: 1 | Gastric ulcerogenicity (in words) ([8]; rat, in vivo): considerable gastrolesive power | LD 50 (Litchfield and Wilcoxon) [11]: 270 mg/kg | inhibition in vivo at 10 mg/kg ([9]; Mus musculus, 10 mg/kg oral, 2 h before phenylquinone, 5-15 min, female mice): 46%
